From patent US5126365A, “Bicyclic derivatives” (Imperial Chemical Industries PLC, priority 1989, dated 1992)
pIC50: −log10 of the molar value.

What was measured:
5-LO [1] = test: Test b) in vitro heparinised human blood challenged with A23187, LTB4 radioimmunoassay (5-LO); format: cell-based; details: A23187 challenge
Description: b) An in vitro assay system involving incubating a test compound with heparinised human blood, prior to challenge with the calcium ionophore A23187 and then indirectly measuring the inhibitory effects on 5-LO by assaying the amount of LTB4 using the specific radioimmunoassay described by Carey and Forder (F. Carey and R. A. Forder, Brit. J. Pharmacol. 1985, 84, 34P) which involves the use of a protein-LTB4 conjugate produced using the procedure of Young et alia (Prostaglandins, 1983, 26(4), 605-613). The effects of a test compound on the enzyme cyclooxygenase (which is involved in the alternative metabolic pathway for arachidonic acid and gives rise to prostaglandins, thromboxanes and related metabolites) may be measured at the same time using the specific radioimmunoassay for thromboxane B2 (TxB2) described by Carey and Forder (see above). This test provides an indication of the effects of a test compound against 5-LO and also cyclooxygenase in the presence of blood cells and proteins. It permits the selectivity of the inhibitory effect on 5-LO or cyclooxygenase to be assessed.

5-LO [2] = test: Test c) ex vivo assay: administration of test compound, blood collection, A23187 challenge, radioimmunoassay of LTB4; format: in vivo; details: oral
Description: c) An ex vivo assay system, which is a variation of test b) above, involving administration of a test compound (usually orally as the suspension produced when a solution of the test compound in dimethylsulphoxide is added to carboxymethylcellulose), blood collection, heparinisation, challenge with A23187 and radioimmunoassay of LTB4 and TxB2. This test provides an indication of the bioavailability of a test compound as an inhibitor of 5-LO or cyclooxygenase.

5-LO [3] = test: Test g) liberation of LTB4 induced by zymosan within an air pouch in male rats; format: in vivo; details: oral, rat zymosan air pouch, 3 hours
Description: g) An in vivo system involving measuring the effects of a test compound administered orally against the liberation of LTB4 induced by zymosan within an air pouch generated within the subcutaneous tissue of the back of male rats. The rats are anaesthetised and air pouches are formed by the injection of sterile air (20 ml). A further injection of air (10 ml) is similarly given after 3 days. At 6 days after the initial air injection the test compound is administered (usually orally as the suspension produced when a solution of the test compound in dimethylsulphoxide is added to hydroxypropylmethylcellulose), followed by the intrapouch injection of zymosan (1 ml of a 1% suspension in physiological saline). After 3 hours the rats are killed, the air pouches are lavaged with physiological saline, and the specific radioimmunoassay described above is used to assay LTB4 in the washings. This test provides an indication of inhibitory effects against 5-LO in an inflammatory milieu.

Structure (SMILES): COC1(c2ccc3c(c2)OC(c2ccc4ccccc4c2)O3)CCOCC1 (stereo not drawn) [5-(4-methoxytetrahydropyran-4-yl)-2-(naphth-2-yl)benzo-1,3-dioxole]
- pIC50 (5-LO [1]): 6.52
- ED50 (5-LO [2]): 5 mg/kg
- ED50 (5-LO [3]): < 3 mg/kg
